The values that follow come from PubChem BioAssay (NCI).

The structures appear in SMILES notation.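 Dose response: 5 concentrations. Exposure: 48 h. Format: 96-well plates. Endpoint: linear interpolation; highest concentration if not reached. GI50 is the concentration that inhibits growth by half. TGI denotes the concentration required for complete inhibition of growth.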

Among the test systems are UACC-62 melanoma; 786-0 renal; RPMI-8226 leukemia; NCI-H460 lung; KM12 colon; CAKI-1 renal; SF-539 CNS; HCT-15 colon; HCC-2998 colon; MOLT-4 leukemia.
Common to all, as to assay: DTP human tumour cell line panel, 48 h

By TGI is commonly meant the concentration giving total growth inhibition. As a reminder, the GI50 is the concentration that inhibits growth by half.

Turning to `CCN(CC)CCn1c2c3ccccc3ccc2c2oc(=O)c3ccccc3c21`, the total growth inhibition concentration (TGI) was over 100 µM with UACC-62 melanoma; 58.5 µM in the experiment on 786-0 renal; over 100 µM in the experiment on RPMI-8226 leukemia; over 100 µM in the experiment with NCI-H460 lung; over 100 µM in the experiment on KM12 colon; over 100 µM in the experiment on CAKI-1 renal. The TGI is 66.1 µM with SF-539 CNS and over 100 µM with HCT-15 colon.
For `O=C(Oc1ccc(O)c2c(=O)n3c(cc12)[nH]c1ccccc13)c1ccccc1`, the GI50 was 13.7 µM in the experiment with UACC-62 melanoma; 18.6 µM in the experiment on HCC-2998 colon; 14.4 µM in the experiment on 786-0 renal; 11.8 µM with RPMI-8226 leukemia; 81.7 µM with NCI-H460 lung; 34.7 µM in the experiment with KM12 colon. Moreover, the GI50 with MOLT-4 leukemia was 16.4 µM; with SF-539 CNS, 6.63 µM; in the experiment with HCT-15 colon it was 12.9 µM. Also, the TGI in the experiment on UACC-62 melanoma was 27.5 µM; with HCC-2998 colon, 36.9 µM; with 786-0 renal, 32.5 µM; in the experiment on RPMI-8226 leukemia, 51.4 µM; in the experiment on NCI-H460 lung, over 100 µM; with KM12 colon, over 100 µM. In addition, the figures for the TGI with MOLT-4 leukemia, with SF-539 CNS and in the experiment on HCT-15 colon were 62.6 µM, 36.6 µM and 28.2 µM, respectively.
With `COc1cc2nc(-c3ccc(C(F)(F)F)cc3)cc(OCCCN3CCOCC3)c2cc1OC`, the GI50 in the experiment on UACC-62 melanoma is 0.628 µM; in the experiment with HCC-2998 colon, 1.41 µM; in the experiment on 786-0 renal, 1.76 µM; in the experiment on NCI-H460 lung it was 0.639 µM; in the experiment with KM12 colon it was 3.42 µM; with MOLT-4 leukemia, 2.51 µM. Also, the GI50 in the experiment with CAKI-1 renal is 0.167 µM; in the experiment on SF-539 CNS, 3.18 µM; with HCT-15 colon, 0.52 µM. Besides, the TGI with UACC-62 melanoma was found to be 3.9 µM; in the experiment on HCC-2998 colon, 5.57 µM; with 786-0 renal, 4.47 µM; in the experiment with NCI-H460 lung it was 13.6 µM; with KM12 colon, 22 µM; in the experiment on MOLT-4 leukemia, 14.9 µM. Further, the TGI was 11.2 µM in the experiment on CAKI-1 renal, 16.4 µM in the experiment with SF-539 CNS and 5.57 µM in the experiment with HCT-15 colon.
With `CCN(CC)CCNc1c(OC)cc(C)c2sc3ccccc3c(=O)c12`, the TGI was 3.36 µM in the experiment with UACC-62 melanoma; 28.4 µM in the experiment on 786-0 renal; 3.05 µM in the experiment with RPMI-8226 leukemia; 18.9 µM with NCI-H460 lung; 17.2 µM with KM12 colon; 4.58 µM with MOLT-4 leukemia. The TGI worked out at 20.6 µM with CAKI-1 renal, 23 µM in the experiment on SF-539 CNS and 14.4 µM in the experiment with HCT-15 colon.
Take `Cc1cc2c(CC(=O)O)[nH]nc2c(C(=O)O)c1C`: the TGI in the experiment on UACC-62 melanoma, in the experiment on HCC-2998 colon, with 786-0 renal, in the experiment on RPMI-8226 leukemia, in the experiment with NCI-H460 lung and in the experiment with MOLT-4 leukemia was over 100 µM throughout. For the same molecule, the total growth inhibition concentration (TGI) in the experiment with SF-539 CNS and in the experiment with HCT-15 colon was over 100 µM throughout.
Turning to `C=CCNC(=S)N1CC(C)C(=O)Nc2ccccc21` (configuration not stated), the TGI in the experiment with UACC-62 melanoma, with 786-0 renal, in the experiment with RPMI-8226 leukemia, in the experiment on NCI-H460 lung, in the experiment on KM12 colon and in the experiment on MOLT-4 leukemia was over 100 µM in each case. For the same molecule, the TGI in the experiment on SF-539 CNS and with HCT-15 colon was over 100 µM throughout.
Turning to `CCCCCCC/C=C/[C@H]1O[C@]23C(=O)C[C@@]4(C[C@@H](OC5OC(CO)C(O)C(O)C5O)C[C@@H]4[C@H]2C=C1C)OC3=O` (some centres not stated), the GI50 is 4.47 µM with UACC-62 melanoma; 4.44 µM with HCC-2998 colon; 4.9 µM with 786-0 renal; 1.28 µM in the experiment on RPMI-8226 leukemia; 6.63 µM in the experiment on NCI-H460 lung; 4.66 µM in the experiment on KM12 colon. Besides, the GI50 was 1.31 µM in the experiment on MOLT-4 leukemia, 5.1 µM with SF-539 CNS and 2.53 µM in the experiment with HCT-15 colon. The concentration for total growth inhibition (TGI) was 10.9 µM with UACC-62 melanoma; 9.39 µM with HCC-2998 colon; 10.1 µM in the experiment on 786-0 renal; over 33.3 µM in the experiment with RPMI-8226 leukemia; 16.8 µM in the experiment on NCI-H460 lung; 11.6 µM in the experiment on KM12 colon. The TGI came to 14.4 µM in the experiment with MOLT-4 leukemia, 9.99 µM in the experiment with SF-539 CNS and 9.43 µM in the experiment on HCT-15 colon.
`Cc1nc2ccc(C(F)(F)F)cc2nc1Nc1ccc(Cl)c(Cl)c1`: the TGI in the experiment on UACC-62 melanoma was determined as 29.1 µM; in the experiment with HCC-2998 colon, 13.7 µM; in the experiment with 786-0 renal, 16.1 µM; in the experiment with RPMI-8226 leukemia it was 88.1 µM; in the experiment with NCI-H460 lung it was 10.5 µM; with MOLT-4 leukemia, 48.2 µM. The values for the TGI in the experiment on SF-539 CNS and with HCT-15 colon were 27.5 µM and 18.5 µM, respectively.
For the molecule `O=C(C(O)c1cn(Cc2ccccc2)c2ccccc12)N1CCCCC1` (configuration not stated), the TGI in the experiment with UACC-62 melanoma, with HCC-2998 colon, in the experiment with 786-0 renal, with RPMI-8226 leukemia, with KM12 colon and in the experiment on MOLT-4 leukemia was over 100 µM throughout. In addition, the TGI with SF-539 CNS and in the experiment with HCT-15 colon was over 100 µM each time.
As for `CCOC(=O)CCC(=O)C1c2cccc(O)c2C(=O)c2c(O)cccc21`, the TGI with UACC-62 melanoma amounted to 1.42 µM; in the experiment with HCC-2998 colon, 2.31 µM; in the experiment on 786-0 renal, 3.26 µM; in the experiment with NCI-H460 lung it was 1.4 µM; with KM12 colon, 2.2 µM; in the experiment on MOLT-4 leukemia, 13.7 µM. In addition, the concentration for total growth inhibition (TGI) with CAKI-1 renal turned out to be 4.99 µM; with SF-539 CNS it was 1.63 µM.
Take `CCCC(=O)c1c(NOC2OC(COC(C)=O)C(OC(C)=O)C(OC(C)=O)C2OC(C)=O)nc(OC)n(C)c1=O` (configuration not stated): the TGI in the experiment on UACC-62 melanoma, in the experiment on HCC-2998 colon, in the experiment with 786-0 renal, with NCI-H460 lung, with KM12 colon and with MOLT-4 leukemia was over 100 µM in each case. Further, the TGI in the experiment on SF-539 CNS and in the experiment with HCT-15 colon was over 100 µM each time.
In the case of `Cc1cc2nc3c(C(OC4OC(CO)C(O)C(O)C4O)C(O)CO)nn(-c4ccccc4)c3nc2cc1C` (configuration not stated), the TGI with UACC-62 melanoma, in the experiment on HCC-2998 colon, in the experiment with 786-0 renal, with RPMI-8226 leukemia, in the experiment on NCI-H460 lung and in the experiment with KM12 colon was over 100 µM throughout. Besides, the TGI in the experiment on MOLT-4 leukemia, with SF-539 CNS and in the experiment with HCT-15 colon was over 100 µM in each case.
Turning to `O=c1cc(-c2ccccc2)[nH]c2cccc(S)c12`, the TGI in the experiment on UACC-62 melanoma was over 100 µM; with HCC-2998 colon it was 4 µM; with 786-0 renal it was over 100 µM; in the experiment with RPMI-8226 leukemia, over 100 µM; with NCI-H460 lung it was over 100 µM; in the experiment with KM12 colon, over 100 µM. The TGI in the experiment with MOLT-4 leukemia was over 100 µM; with SF-539 CNS it was 0.594 µM; with HCT-15 colon, over 100 µM.
